PMC6204917, “Inhibitory effects of cannabidiol on voltage-dependent sodium currents” (The Journal of Biological Chemistry, 2018)

What was measured:
Type in all cases: cell-based
hNav1.2 = molecular target: T1, hNav1.2 (Homo sapiens, UniProt Q99250); assay: manual whole-cell patch clamp
T1 construct: gene SCN2A; full-length alpha-subunit in HEK-293 cells with human beta1; with Sodium channel regulatory subunit beta-1

mNav1.6 = molecular target: T2, mNav1.6 (Mus musculus, UniProt Q9WTU3); assay: automated whole-cell voltage clamp (Qube-384)
T2 construct: gene Scn8a; full-length mouse alpha-subunit in HEK-293 cells with human beta1; with Sodium channel regulatory subunit beta-1 (human)

hNav1.6 [1] = molecular target: T3, hNav1.6 (Homo sapiens, UniProt Q9UQD0); assay: automated whole-cell voltage clamp
T3 construct: gene SCN8A; full-length alpha-subunit in HEK-293 cells with human beta1; with Sodium channel regulatory subunit beta-1

hNav1.1 [2] = molecular target: T4, hNav1.1 (Homo sapiens, UniProt P35498, F1774A); assay: automated whole-cell voltage clamp
T4 construct: gene SCN1A; full-length alpha-subunit in HEK-293 cells with human beta1; with Sodium channel regulatory subunit beta-1

NaChBac = molecular target: T5, NaChBac (Halalkalibacterium halodurans, UniProt Q9KCR8); assay: whole-cell voltage clamp
T5 construct: gene BH1501; homotetrameric bacterial channel expressed in HEK-293 cells (construct not described)
T5 sequence (Q9KCR8 1-274): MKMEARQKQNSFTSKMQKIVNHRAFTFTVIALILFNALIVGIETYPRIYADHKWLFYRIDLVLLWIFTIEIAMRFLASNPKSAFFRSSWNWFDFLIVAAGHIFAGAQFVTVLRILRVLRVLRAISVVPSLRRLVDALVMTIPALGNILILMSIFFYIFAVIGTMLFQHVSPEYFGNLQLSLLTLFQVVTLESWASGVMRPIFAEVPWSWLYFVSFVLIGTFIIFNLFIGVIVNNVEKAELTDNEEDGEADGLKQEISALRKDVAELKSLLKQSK

hNav1.5 = molecular target: T6, hNav1.5 (Homo sapiens, UniProt Q14524); assay: automated whole-cell voltage clamp (Qube-384)
T6 construct: gene SCN5A; full-length alpha-subunit in HEK-293 cells with human beta1; with Sodium channel regulatory subunit beta-1

hNav1.3 = molecular target: T7, hNav1.3 (Homo sapiens, UniProt Q9NY46); assay: automated whole-cell voltage clamp (Qube-384)
T7 construct: gene SCN3A; full-length alpha-subunit in HEK-293 cells with human beta1; with Sodium channel regulatory subunit beta-1

hNav1.6 [3] = molecular target: T8, hNav1.6 (Homo sapiens, UniProt Q9UQD0, N1768D); assay: automated whole-cell voltage clamp
T8 construct: gene SCN8A; full-length alpha-subunit in HEK-293 cells with human beta1; with Sodium channel regulatory subunit beta-1

hNav1.4 = molecular target: T9, hNav1.4 (Homo sapiens, UniProt P35499); assay: automated whole-cell voltage clamp (Qube-384)
T9 construct: gene SCN4A; full-length alpha-subunit in HEK-293 cells with human beta1; with Sodium channel regulatory subunit beta-1

hNav1.1 [4] = molecular target: T10, hNav1.1 (Homo sapiens, UniProt P35498); assay: automated whole-cell voltage clamp
T10 construct: gene SCN1A; full-length alpha-subunit in HEK-293 cells with human beta1; with Sodium channel regulatory subunit beta-1

How did the IC50 (hNav1.2) turn out when `C=C(C)[C@@H]1CCC(C)=C[C@H]1c1c(O)cc(CCCCC)cc1O` [cannabidiol] was run?
Its IC50 is 1300 ± 100 nM.

What about the IC50 (mNav1.6) of the same molecule?
Its IC50 is 2400 ± 100 nM.

And the IC50 (hNav1.6 [1])?
The IC50 was 3000 ± 100 nM.

What about the IC50 (hNav1.1 [2]) of the same molecule?
The IC50 was 4800 ± 200 nM.

What about the IC50 (NaChBac) of the same molecule?
Its IC50 is 1500 ± 200 nM.

And the IC50 (hNav1.5)?
The IC50 was 3800 ± 200 nM.

And the IC50 (hNav1.3)?
Its IC50 is 3300 ± 100 nM.

And the IC50 (hNav1.6 [3])?
Its IC50 is 10000 ± 700 nM.

What about the IC50 (hNav1.4) of the same molecule?
Its IC50 is 1900 ± 100 nM.

What about the IC50 (hNav1.1 [4]) of the same molecule?
The IC50 was 2500 ± 200 nM.

`CCCCNc1ccc(C(=O)OCCN(C)C)cc1` [tetracaine] was tested. Which IC50 (hNav1.1 [2]) did it give?
The IC50 was ~44100 nM.

What about the IC50 (hNav1.1 [4]) of the same molecule?
The IC50 was 1600 ± 100 nM.
